# According to patent publication US20200010562A1, “NEW THERAPEUTIC STRATEGIES AGAINST BLOOD CANCER” (priority 2015, published 2020):
# Like-named read-outs stand apart in the source and are kept apart here.
# Columns and labels:
# [1] = tested on: primary embryonic mouse fibroblast (MEF); conditions: 24 h, 10 μM
# L1210 = test: Erythrosin B exclusion survival/mortality of L1210 in control or FMD medium; assay type: cell-based, murine
# MEC1 = test: Survival/mortality of MEC1 in control or FMD medium; assay type: cell-based, human; conditions: for effect of FMD medium on growth inhibitory effect of the drug: FMD vs control medium
# MEC2 = test: Survival/mortality of MEC2 in control or FMD medium; assay type: cell-based, human; conditions: for effect of FMD medium on growth inhibitory effect of the drug: FMD vs control medium
# [2] = tested on: relapsed and refractory indolent lymphomas; conditions: single agent; cited from earlier work
# MEC1 cells [3] = test: In vivo CLL model, histopathological analysis of organs (H&E); parameters: species or system Rag2−/−γc−/− female mice; conditions: majority of organs
# Experimental: (§1) Eight-week-old Rag2−/−γ c−/− female mice were challenged intravenously (iv) via lateral tail veins with 10×10^6 MEC1 cells in 0.1 ml of saline through a 27-gauge needle, as previously described by Bertilaccio et al., (2010). Before injection, cells in log phase of growth were harvested and suspended in phosphate-buffered saline (PBS) at 100×10^6 cells/ml, and 100 μl (10×10^6 cells per mouse) was injected iv. All mice were gently warmed before intravenous injections to dilate the veins. Body weights were determined daily, and tumor progression was determined by blood smear. Animals were monitored every day for weight and general health conditions and were sacrificed when they experienced clinical signs of illness following the criteria approved and described in the protocol #742/2015—PR (see Animal Ethics Statement).
# (§2) Animals were fasted for a total of 48 hours by complete deprivation of food but with free access to water. […] Body weight was measured daily and immediately before and after fasting. […]
# For morphological analysis, organs (BM, spleen, kidney, liver and lung) were formalin-fixed, paraffin-embedded, cut at 3-μm-thick sections, and stained with hematoxylin and eosin. Histologic sections were evaluated in a double-blinded fashion. […] For these mice groups, the morphology of analyzed organ was similar to the control ([…]).
# [4] = In vivo CLL model, spleen weight; parameters: species or system Rag2−/−γc−/− female mice; conditions: fasted (STS) groups
# Experimental: as §1
# Animals were fasted for a total of 48 hours by complete deprivation of food but with free access to water. Mice were individually housed in a clean new cage to reduce cannibalism, coprophagy, and residual chow. Body weight was measured daily and immediately before and after fasting. […]
# At the end of experimental procedure, peripheral blood (PB), peritoneal exudates and organs [spleen, kidneys, liver, lungs, and femoral bone marrow (BM)] were collected and analyzed either for FACS or morphological analyses. For all experimental group, spleen weight was measured (FIG. 21).
# MEC1 cells [5] = test: In vivo CLL model, FACS for human CD19/CD20/CD45 leukemic cells in tissues; parameters: species or system Rag2−/−γc−/− female mice; conditions: in combination with STS; majority of analyzed tissues
# Experimental: as §1, §2
# For FACS analysis, after blocking fragment crystallizable receptors for 10 minutes at room temperature to avoid nonspecific binding of antibodies, cells from PB, BM, peritoneal exudates, and spleen were stained with PE-Vio770 anti-human CD19 antibody. FITC anti-human CD20 and TRITC anti-human CD45 anti-human, respectively (MACS Miltenyi Biotec) and analyzed with BD FACSCANTO II flow cytometer. […]
# CD20 = conditions: rituximab-resistant cell lines in vitro; cited from earlier work
# [6] = alone or in combination with low glucose/FCS (FMD)
compound,measurement,setting,value
C/C=C1\NC(=O)[C@H]2CSSCC/C=C/[C@H](CC(=O)N[C@H](C(C)C)C(=O)N2)OC(=O)[C@H](C(C)C)NC1=O [Romidepsin],decrease of percentage of surviving cells,[1],about 50%
same,mortality rate,[1],about 12%
same,percentage of mortality,[1],4%
same,survival rate,[1],about 77%
(−)Epigallocatechin Gallate [EGCG],reducing survival rates,L1210,did not show a strong efficiency
COc1cc(/C=C/C(=O)CC(=O)/C=C/c2ccc(O)c(OC)c2)ccc1O [Curcumin],reducing survival rates,L1210; [6],did not show a strong efficiency
C[C@]12C=CC(=O)C=C1CC[C@@H]1[C@@H]2C(=O)C[C@@]2(C)[C@H]1CC[C@]2(O)C(=O)CO [Prednisone],reducing survival rates,L1210; [6],did not show a strong efficiency
same,effect on L1210 growth,L1210; independently of the application of the FMD,no or limited effect
Rituximab,effect on cell survival and death,MEC1,very effective
same,effect on cell survival and death,MEC2,very effective
same,overall response rate,[2],50%
"O=C1O[C@H]([C@@H](O)CO)C(O)=C1O [Vitamin C, L-Ascorbic acid]",reducing survival rates,L1210,did not show a strong efficiency
CC(C)C[C@H](NC(=O)[C@H](Cc1ccccc1)NC(=O)c1cnccn1)B(O)O [Bortezomib],effect of FMD medium on growth inhibitory effect of the drug,MEC1,remarkably improved
same,killing tumor cells,L1210,very effective in killing tumor cells
same,metastases and cluster of infiltration,MEC1 cells [3]; ad lib,lesser expanse
same,metastases and cluster of infiltration,MEC1 cells [3]; with STS,lesser expanse
same,effect of FMD medium on growth inhibitory effect of the drug,MEC2,remarkably improved
same,spleen weight,[4],significantly lower
same,"expression of human CD19, human CD20 and human CD45",MEC1 cells [5],significantly decreases
same,CD20 expression,CD20,increases CD20 expression
O=P1(N(CCCl)CCCl)NCCCO1 (stereo not drawn) [Cyclophosphamide],killing tumor cells,L1210,very effective in killing tumor cells
O=C(/C=C/c1cccc(S(=O)(=O)Nc2ccccc2)c1)NO [Belinostat],effect of FMD medium on growth inhibitory effect of the drug,MEC1,remarkably improved
same,killing tumor cells,L1210,very effective in killing tumor cells
same,effect of FMD medium on growth inhibitory effect of the drug,MEC2,remarkably improved
